Experiments:
Assay type in all cases: functional
Escherichia coli [1] = assay: Antimicrobial activity against Extended-spectrum beta-lactamase producing Escherichia coli clinical isolate assessed as resistant isolate
Escherichia coli [2] = assay: Antimicrobial activity against Extended-spectrum beta-lactamase producing Escherichia coli clinical isolate assessed as resistant isolate in presence of beta-lactamase inhibitor Tazobactam
Escherichia coli [3] = assay: Antimicrobial activity against Extended-spectrum beta-lactamase producing Escherichia coli clinical isolate assessed as resistant isolate in presence of beta-lactamase inhibitor clavulanic acid

Compound	Activity (Escherichia coli [1]) [%]	further results
NC[C@H]1O[C@H](O[C@H]2[C@H](O)[C@@H](O[C@H]3O[C@H](CO)[C@@H](O)[C@H](N)[C@H]3O)[C@H](N)C[C@@H]2N)[C@H](N)C[C@@H]1O [TOBRAMYCIN]	50	–
CCN1CCN(C(=O)N[C@@H](C(=O)N[C@@H]2C(=O)N3[C@@H]2SC(C)(C)[C@@H]3C(=O)O)c2ccccc2)C(=O)C1=O [PIPERACILLIN]	–	Activity (Escherichia coli [2]): 47%
GENTAMICIN	42	–
NCC[C@H](O)C(=O)N[C@@H]1C[C@H](N)[C@@H](O[C@H]2O[C@H](CN)[C@@H](O)[C@H](O)[C@H]2O)[C@H](O)[C@H]1O[C@H]1O[C@H](CO)[C@@H](O)[C@H](N)[C@H]1O [AMIKACIN]	1	–
CC1(C)S[C@@H]2[C@H](NC(=O)[C@H](N)c3ccc(O)cc3)C(=O)N2[C@H]1C(=O)O [AMOXICILLIN]	–	Activity (Escherichia coli [3]): 74%
O=C1CN(/N=C/c2ccc([N+](=O)[O-])o2)C(=O)N1 [NITROFURANTOIN]	7	–

Source: ChEMBL document CHEMBL1649487, “Molecular characteristics of travel-related extended-spectrum-beta-lactamase-producing Escherichia coli isolates from the Calgary Health Region” (2009)
